Reference: patent US20250243180A1, “TARGETED PROTEIN DEGRADATION” (Monte Rosa Therapeutics AG, priority 2023, published 2025)
Where two headings read alike, the source gives them in different places.

Tests used:
NEK7 = NEK7 (Homo sapiens (Human), UniProt Q8TDX7+Q96SW2); test: NEK7 NanoBiT degradation assay in Cal51 NEK7 NanoBiT cell line; assay type: cell-based; conditions: Cal51 NEK7 NanoBiT cells, 24 hours; for Dmax: CAL-51
In short: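 Cal51 cells with CRISPR knock-in HiBiT-tagged endogenous NEK7 plus stable LgBiT, in live-cell Endurazine medium, seeded 16 h before dosing. Compounds at final 1 μM to 0.05 nM for 24 h at 37 °C, then luminescence read. Response normalized to plate controls and fitted with a 4-parameter logistic giving EC50.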

CRBN-DDB1 = CRBN-DDB1 (Homo sapiens (Human), UniProt Q96SW2); test: Compound binding to CRBN by HTRF assay
Sequence of CRBN-DDB1 (Q96SW2 whole entry): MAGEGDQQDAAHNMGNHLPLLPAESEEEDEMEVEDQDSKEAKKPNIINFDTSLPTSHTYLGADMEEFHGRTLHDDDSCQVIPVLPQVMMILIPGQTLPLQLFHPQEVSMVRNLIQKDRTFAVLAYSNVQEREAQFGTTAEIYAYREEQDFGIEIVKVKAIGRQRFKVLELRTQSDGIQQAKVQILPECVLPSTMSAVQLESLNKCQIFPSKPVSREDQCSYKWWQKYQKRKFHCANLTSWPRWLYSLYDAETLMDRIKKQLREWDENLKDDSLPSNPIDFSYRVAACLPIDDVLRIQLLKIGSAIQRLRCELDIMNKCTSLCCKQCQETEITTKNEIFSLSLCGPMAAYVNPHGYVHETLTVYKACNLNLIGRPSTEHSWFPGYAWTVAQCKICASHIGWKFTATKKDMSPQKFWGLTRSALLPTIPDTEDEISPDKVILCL
Sequence of CRBN-DDB1 (Q16531 whole entry partner): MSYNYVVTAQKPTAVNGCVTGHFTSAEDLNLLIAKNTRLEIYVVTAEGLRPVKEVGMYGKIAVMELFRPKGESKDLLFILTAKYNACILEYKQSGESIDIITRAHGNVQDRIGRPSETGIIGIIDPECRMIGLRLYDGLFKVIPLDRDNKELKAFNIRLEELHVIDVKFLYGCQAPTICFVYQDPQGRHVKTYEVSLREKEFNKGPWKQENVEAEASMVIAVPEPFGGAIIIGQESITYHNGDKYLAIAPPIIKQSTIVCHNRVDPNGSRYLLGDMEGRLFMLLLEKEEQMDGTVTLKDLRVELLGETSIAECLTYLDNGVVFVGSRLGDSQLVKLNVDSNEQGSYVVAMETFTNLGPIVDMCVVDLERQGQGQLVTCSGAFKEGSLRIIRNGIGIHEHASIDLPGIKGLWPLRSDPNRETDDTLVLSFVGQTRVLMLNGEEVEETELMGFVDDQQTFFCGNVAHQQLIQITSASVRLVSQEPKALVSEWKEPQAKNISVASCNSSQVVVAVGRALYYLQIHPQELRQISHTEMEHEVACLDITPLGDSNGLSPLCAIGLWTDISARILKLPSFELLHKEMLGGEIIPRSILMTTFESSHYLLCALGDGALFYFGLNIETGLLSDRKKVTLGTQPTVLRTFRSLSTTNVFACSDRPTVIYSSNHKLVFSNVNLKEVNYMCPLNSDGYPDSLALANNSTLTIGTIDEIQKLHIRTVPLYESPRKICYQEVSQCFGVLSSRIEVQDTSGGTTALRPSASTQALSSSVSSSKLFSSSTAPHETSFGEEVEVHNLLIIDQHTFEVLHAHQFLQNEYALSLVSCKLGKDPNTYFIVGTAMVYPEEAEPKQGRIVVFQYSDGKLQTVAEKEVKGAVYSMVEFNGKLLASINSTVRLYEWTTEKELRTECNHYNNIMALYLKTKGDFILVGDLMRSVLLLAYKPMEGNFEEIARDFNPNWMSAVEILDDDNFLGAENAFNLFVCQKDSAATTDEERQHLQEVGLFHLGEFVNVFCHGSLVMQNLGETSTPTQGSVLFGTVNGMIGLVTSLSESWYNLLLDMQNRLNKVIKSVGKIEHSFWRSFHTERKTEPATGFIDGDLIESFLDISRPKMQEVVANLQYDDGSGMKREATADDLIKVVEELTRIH
In short: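 HTRF displacement of Cy5-thalidomide probe (100 nM) from His-tagged CRBN-DDB1 (2.5 nM) with anti-His terbium cryptate, in HEPES/NaCl/TCEP/EDTA/Tween20 buffer; 11-point 1:3 dilution series, 30 min at ambient temperature. Signal (665/620 nm) normalized to lenalidomide and DMSO controls; EC50 fitted, Ki by Cheng-Prusoff from geometric mean EC50.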

[1] = NEK7 degradation, read-out: NanoBiT Dmax
[2] = NEK7 degradation, read-out: NanoBiT DC50

Sequence of NEK7 (Q8TDX7 whole entry): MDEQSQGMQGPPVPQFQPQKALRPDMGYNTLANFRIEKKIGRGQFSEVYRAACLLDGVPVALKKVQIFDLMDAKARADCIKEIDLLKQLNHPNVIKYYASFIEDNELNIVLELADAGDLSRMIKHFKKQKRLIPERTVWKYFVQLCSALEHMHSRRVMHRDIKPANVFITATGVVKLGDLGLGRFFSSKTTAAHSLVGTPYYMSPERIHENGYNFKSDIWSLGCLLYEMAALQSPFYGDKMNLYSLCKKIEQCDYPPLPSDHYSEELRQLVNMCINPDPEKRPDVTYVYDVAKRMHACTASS
Sequence of NEK7 (Q96SW2 whole entry): as the sequence (Q96SW2 whole entry) above
Sequence of NEK7 (Q16531 2-1140 partner): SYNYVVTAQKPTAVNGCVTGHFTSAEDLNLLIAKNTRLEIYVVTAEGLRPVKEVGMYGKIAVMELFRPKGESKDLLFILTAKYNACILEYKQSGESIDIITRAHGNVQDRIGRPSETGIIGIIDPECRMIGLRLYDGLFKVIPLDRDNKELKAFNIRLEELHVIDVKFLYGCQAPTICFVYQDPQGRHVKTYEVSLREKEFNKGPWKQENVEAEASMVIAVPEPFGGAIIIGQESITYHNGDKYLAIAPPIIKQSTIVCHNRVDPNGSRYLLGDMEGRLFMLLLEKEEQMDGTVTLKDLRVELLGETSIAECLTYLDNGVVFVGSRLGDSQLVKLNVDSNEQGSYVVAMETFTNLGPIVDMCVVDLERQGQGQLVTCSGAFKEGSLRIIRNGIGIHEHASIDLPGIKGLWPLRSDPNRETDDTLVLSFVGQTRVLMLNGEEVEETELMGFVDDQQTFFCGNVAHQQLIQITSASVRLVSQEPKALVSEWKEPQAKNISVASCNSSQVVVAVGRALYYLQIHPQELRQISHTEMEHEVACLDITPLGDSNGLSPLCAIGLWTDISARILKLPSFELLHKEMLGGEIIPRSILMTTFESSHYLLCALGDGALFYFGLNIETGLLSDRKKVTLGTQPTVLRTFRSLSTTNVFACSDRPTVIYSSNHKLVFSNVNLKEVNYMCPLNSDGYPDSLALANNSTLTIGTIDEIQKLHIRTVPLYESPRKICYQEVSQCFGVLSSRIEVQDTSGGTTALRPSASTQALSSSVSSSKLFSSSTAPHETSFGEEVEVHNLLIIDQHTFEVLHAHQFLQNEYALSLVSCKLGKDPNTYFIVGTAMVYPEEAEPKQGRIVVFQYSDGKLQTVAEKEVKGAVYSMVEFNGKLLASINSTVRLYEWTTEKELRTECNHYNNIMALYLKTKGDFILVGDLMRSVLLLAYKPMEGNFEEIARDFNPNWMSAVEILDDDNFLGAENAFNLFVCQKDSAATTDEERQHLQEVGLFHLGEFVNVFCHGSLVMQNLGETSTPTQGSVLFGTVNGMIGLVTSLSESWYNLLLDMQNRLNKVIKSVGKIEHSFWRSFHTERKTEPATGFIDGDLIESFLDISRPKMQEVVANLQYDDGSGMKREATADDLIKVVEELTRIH

| Compound | Dmax (NEK7; read-out: NEK7 NanoBiT Dmax) | Dmax (NEK7; [1]) | DC50 (NEK7; read-out: NEK7 NanoBiT DC50) | DC50 (NEK7; [2]) | EC50 (CRBN-DDB1) | EC50 (CRBN-DDB1; HTRF class, Cereblon binding) |
| --- | --- | --- | --- | --- | --- | --- |
| CC(C)(C(=O)NCc1ccc(C2CCC(=O)NC2=O)c(Cl)c1)c1nc2ccccc2o1 (stereo not drawn) [Compound 246, 2-(benzo[d]oxazol-2-yl)-N-(3-chloro-4-(2,6-dioxopiperidin-3-yl)benzyl)-2-methylpropanamide] | 82% | > 75% | 27 nM | ≤ 100 nM | 180 nM | 100 to 1000 nM |
| CCc1cnc(C(C)(C)C(=O)NCc2cc(Cl)c(C3CCC(=O)NC3=O)c(Cl)c2)cn1 (stereo not drawn) [Compound 247] | 83% | > 75% | 20 nM | ≤ 100 nM | 120 nM | 100 to 1000 nM |
| CC(C)(C(=O)NCc1cc(Cl)c(C2CCC(=O)NC2=O)c(Cl)c1)c1cnc(Cl)cn1 (stereo not drawn) [Compound 248] | 95% | > 75% | 2 nM | ≤ 100 nM | 70 nM | ≤ 100 nM |
| CC(C)(C(=O)NCc1cc(F)c(C2CCC(=O)NC2=O)c(Cl)c1)c1nc2ccccc2o1 (stereo not drawn) [Compound 249] | 87% | > 75% | 7 nM | ≤ 100 nM | 70 nM | ≤ 100 nM |
| COc1ccc(C(C)(C)C(=O)NCc2cc(F)c(C3CCC(=O)NC3=O)c(Cl)c2)cn1 (stereo not drawn) [Compound 250] | 96% | > 75% | 2 nM | ≤ 100 nM | 70 nM | ≤ 100 nM |
| COc1cnc(C(C)(C)C(=O)NCc2cc(F)c(C3CCC(=O)NC3=O)c(Cl)c2)cn1 (stereo not drawn) [Compound 251] | 92% | > 75% | 4 nM | ≤ 100 nM | 80 nM | ≤ 100 nM |
| CCOc1cnc(C(C)(C)C(=O)NCc2cc(F)c(C3CCC(=O)NC3=O)c(Cl)c2)cn1 (stereo not drawn) [Compound 252] | 93% | > 75% | 3 nM | ≤ 100 nM | 50 nM | ≤ 100 nM |
| Cc1cnc(C(C)(C)C(=O)NCc2cc(F)c(C3CCC(=O)NC3=O)c(Cl)c2)nc1 (stereo not drawn) [Compound 253] | 45% | ≤ 50% | 778 nM | 100 to 1000 nM | 140 nM | 100 to 1000 nM |
| Cc1coc(C(C)(C)C(=O)NCc2cc(F)c(C3CCC(=O)NC3=O)c(Cl)c2)n1 (stereo not drawn) [Compound 254] | 55% | 50 to 75% | 278 nM | 100 to 1000 nM | 120 nM | 100 to 1000 nM |
| CC(F)(F)c1cnc(C(C)(C)C(=O)NCc2cc(F)c(C3CCC(=O)NC3=O)c(Cl)c2)cn1 (stereo not drawn) [Compound 255] | 54% | 50 to 75% | 464 nM | 100 to 1000 nM | 90 nM | ≤ 100 nM |
| COc1cnc(C(C)(C)C(=O)NCc2cc(F)c(C3CCC(=O)NC3=O)c(Cl)c2)nc1 (stereo not drawn) [Compound 256] | 85% | > 75% | 11 nM | ≤ 100 nM | 80 nM | ≤ 100 nM |
| CC(C)(C(=O)NCc1cc(Cl)c(C2CCC(=O)NC2=O)c(Cl)c1)c1cnc(OC(F)F)cn1 (stereo not drawn) [Compound 257] | 95% | > 75% | 1 nM | ≤ 100 nM | 50 nM | ≤ 100 nM |
| CCOc1ccc(C(C)(C)C(=O)NCc2cc(F)c(C3CCC(=O)NC3=O)c(Cl)c2)nn1 (stereo not drawn) [Compound 258] | 91% | > 75% | 4 nM | ≤ 100 nM | 70 nM | ≤ 100 nM |
| CC(C)(C(=O)NCc1cc(Cl)c(C2CCC(=O)NC2=O)c(Cl)c1)c1cnc(OC(F)(F)F)cn1 (stereo not drawn) [Compound 259] | 91% | > 75% | 6 nM | ≤ 100 nM | 90 nM | ≤ 100 nM |
| CC(C)(C(=O)NCc1cc(F)c(C2CCC(=O)NC2=O)c(Cl)c1)c1cc(F)ccn1 (stereo not drawn) [Compound 260, N-(3-chloro-4-(2,6-dioxopiperidin-3-yl)-5-fluorobenzyl)-2-(4-fluoropyridin-2-yl)-2-methylpropanamide] | 47% | ≤ 50% | 480 nM | 100 to 1000 nM | 110 nM | 100 to 1000 nM |

Second part, the molecule after the results:

| Dmax (NEK7; read-out: NEK7 NanoBiT Dmax) | Dmax (NEK7; [1]) | DC50 (NEK7; read-out: NEK7 NanoBiT DC50) | DC50 (NEK7; [2]) | EC50 (CRBN-DDB1) | EC50 (CRBN-DDB1; HTRF class, Cereblon binding) | Compound |
| --- | --- | --- | --- | --- | --- | --- |
| 87% | > 75% | 12 nM | ≤ 100 nM | 90 nM | ≤ 100 nM | COc1ccc(C(C)(C)C(=O)NCc2cc(F)c(C3CCC(=O)NC3=O)c(Cl)c2)nc1 (stereo not drawn) [Compound 261] |
| 88% | > 75% | 12 nM | ≤ 100 nM | 80 nM | ≤ 100 nM | COc1ccc(C(C)(C)C(=O)NCc2cc(F)c(C3CCC(=O)NC3=O)c(Cl)c2)nn1 (stereo not drawn) [Compound 262] |
| 90% | > 75% | 7 nM | ≤ 100 nM | 100 nM | 100 to 1000 nM | CC(F)(F)c1cnc(C(C)(C)C(=O)NCc2cc(Cl)c(C3CCC(=O)NC3=O)c(Cl)c2)cn1 (stereo not drawn) [Compound 263] |
| 68% | 50 to 75% | 100 nM | ≤ 100 nM | 130 nM | 100 to 1000 nM | CC(C)(C(=O)NCc1cc(F)c(C2CCC(=O)NC2=O)c(Cl)c1)c1cnc(OC(F)(F)F)cn1 (stereo not drawn) [Compound 264] |
| 56% | 50 to 75% | 474 nM | 100 to 1000 nM | 90 nM | ≤ 100 nM | CC(C)(C(=O)NCc1cc(Cl)c(C2CCC(=O)NC2=O)c(Cl)c1)C1CCCO1 (stereo not drawn) [Compound 265, N-(3,5-dichloro-4-(2,6-dioxopiperidin-3-yl)benzyl)-2-methyl-2-(tetrahydrofuran-2-yl)propanamide] |
| 82% | > 75% | 15 nM | ≤ 100 nM | 120 nM | 100 to 1000 nM | CC(C)(C(=O)NCc1cc(Cl)c(C2CCC(=O)NC2=O)c(Cl)c1)c1cn(C(C)(F)F)c(=O)cn1 (stereo not drawn) [Compound 266, N-(3,5-dichloro-4-(2,6-dioxopiperidin-3-yl)benzyl)-2-(4-(1,1-difluoroethyl)-5-oxo-4,5-dihydropyrazin-2-yl)-2-methylpropanamide] |
| 94% | > 75% | 3 nM | ≤ 100 nM | 110 nM | 100 to 1000 nM | CC(C)(C(=O)NCc1cc(F)c(C2CCC(=O)NC2=O)c(Cl)c1)c1ccc(OC(F)F)nc1 (stereo not drawn) [Compound 267] |
| 88% | > 75% | 11 nM | ≤ 100 nM | 120 nM | 100 to 1000 nM | COc1conc1C(C)(C)C(=O)NCc1cc(F)c(C2CCC(=O)NC2=O)c(Cl)c1 (stereo not drawn) [Compound 268] |
| 95% | > 75% | 1 nM | ≤ 100 nM | 100 nM | 100 to 1000 nM | CC(C)(C(=O)NCc1cc(F)c(C2CCC(=O)NC2=O)c(Cl)c1)c1ccc(OCC(F)F)nc1 (stereo not drawn) [Compound 269, N-(3-chloro-4-(2,6-dioxopiperidin-3-yl)-5-fluorobenzyl)-2-(6-(2,2-difluoroethoxy)pyridin-3-yl)-2-methylpropanamide] |
